Assays:
[1] = system: murine lung exposed to bleomycin; experiment: Treatment of bleomycin-exposed mice with CT474 (post-disease modeling of lung fibrosis); format: in vivo, mice (C57B6 WT); conditions: treated from days 7 to 13, vehicle vs CT474, N=13-15 per group
Source text: “Vehicle” as used herein is the substance used as a carrier for the pharmaceutical agent to include aqueous solutions or oils. Oils are derived from petroleum, animal, vegetable or synthetic origin, such as peanut oil. In FIGS. 5-7 signify “veh” signify vehicle. Flow cytometry of peripheral blood buffy coat after being treated with either vehicle or CT474. Pre-mortem Pressure-Volume curve using Sireq Flexivent in murine lung exposed to bleomycin then treated from days 7 to 13 with vehicle or CT474 is shown in FIG. 6. Soluble collagen measured by Sircol assay in murine lung (C57B6 WT) exposed to bleomycin then treated from days 7 to 13 with vehicle (n=15) or […] (n=13) is shown in FIG. 7. Statistical calculations were performed using from repeated measures. Analysis of variation (ANOVA) was used to determine differences between groups.

[2] = system: Klebsiella pneumoniae strain 43816; experiment: Minimal inhibitory concentration (MIC) method, growth of Klebsiella pneumoniae in tryptic soy broth; format: cell-based
Procedure: FIG. 3 show CFU of Klebsiella pneumoniae cultured in tryptic soy broth at 37° C. for 24 h with 0, 10 nM, 100 nM, 1 μM, and 10 μM CT474 dissolved in 1% Dimethyl sulfoxide (DMSO).
Microorganisms: Klebsiella pneumoniae strain 43816 (American Type Culture Collection, Manassas, Va.) was used for the studies.
The minimal inhibitory concentration (MIC) method was used to characterize the in vitro efficacy of the compound as shown in the FIG. 3. Briefly, Klebsiella pneumoniae strain 43816 (American Type Culture Collection, Manassas, Va.) was grown overnight at 37° C. to mid-log phase in tryptic soy broth. CT474 was initially suspended with DMSO, then diluted in the culture broth with final concentrations of CT474 at 0 nM (1% DMSO alone), 10 nM, 100 nM, 1 μM, and 10 μM with 10,000 CFU Klebsiella pneumoniae in 10 mL tryptic soy broth. OD600 was measured 24 h later, then the CFU was determined using a standard curve.
Statistical calculations were performed using from repeated measures. Analysis of variation (ANOVA) was used to determine differences between groups.

CO[C@H]1C[C@@H](C)C/C(C)=C/[C@@H](C/C=C/c2cc3ccccc3c3ccccc23)C(=O)C[C@H](O)[C@@H](C)[C@@H](/C(C)=C/[C@@H]2CC[C@@H](O)[C@H](OC)C2)OC(=O)[C@@H]2CCCCN2C(=O)C(=O)[C@]2(O)O[C@H]1[C@@H](OC)C[C@H]2C [CT474]
fibrotic lung damage [1]: significant reduction | effect on the growth of Klebsiella pneumoniae (CFU determined from OD600) ([2]; 10 nM, 100 nM, 1 μM, 10 μM CT474 in 1% DMSO, tryptic soy broth, 37° C., 24 h, 10,000 CFU inoculum): increasingly suppressive effects | colony forming units (CFU) of Klebsiella pneumoniae ([2]; increase in concentration of CT474 from 10 nM upto 1 μM): consecutive decrease
